Patent US20220395511A1, “COMPOSITIONS AND METHODS FOR INCREASING CELL SURFACE OXYTOCIN RECEPTOR (OXTR)” (Washington University, priority 2021, published 2022)
Entries after “also recorded” stand apart in the source; their conditions may differ. Read-outs that look alike come from different tables or passages of the source.

Legend:
WT OXTR = target: T1, WT OXTR (Homo sapiens, UniProt P30559); assay: Quantitative flow cytometry of cell surface WT HA-OXTR-GFP in transfected HEK293T cells; assay type: cell-based; conditions: for more surface WT OXTR than vehicle-treated cells: HEK293T, WT HA-OXTR-GFP, 10 μM, 16 h
T1 construct: expressed in transfected cells; host or cells: HEK293T (transient)
T1 sequence (P30559 1-389): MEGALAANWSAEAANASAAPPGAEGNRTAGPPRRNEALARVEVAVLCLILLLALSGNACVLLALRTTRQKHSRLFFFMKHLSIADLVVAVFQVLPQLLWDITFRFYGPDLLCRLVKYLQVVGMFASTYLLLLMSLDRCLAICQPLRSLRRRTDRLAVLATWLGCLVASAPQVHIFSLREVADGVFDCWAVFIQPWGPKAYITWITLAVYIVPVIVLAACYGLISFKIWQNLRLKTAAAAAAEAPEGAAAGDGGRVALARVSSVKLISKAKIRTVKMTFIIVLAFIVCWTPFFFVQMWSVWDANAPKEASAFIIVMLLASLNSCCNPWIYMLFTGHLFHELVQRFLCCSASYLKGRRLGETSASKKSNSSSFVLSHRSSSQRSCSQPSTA

[1] = target: T2, WT OXTR endogenously expressed in hTERT-HM cells (Homo sapiens, UniProt P30559); assay: Quantitative flow cytometry of cell surface HA-OXTR in hTERT-HM cells; assay type: cell-based; conditions: for decrease of baseline cell surface OXTR abundance: cycloheximide 25 μg/mL, brefeldin A 5 μg/mL
T2 construct: hTERT-immortalized human myometrial (hTERT-HM) cells, which endogenously express WT OXTR; endogenous in cells; host or cells: hTERT-HM (genome-edited: HA knock-in at the OXTR locus)
T2 sequence (P30559 1-389): T1 sequence (P30559 1-389)
Description: These experiments were performed in the hTERT-immortalized human myometrial cell line, which was modified to introduce an N-terminal HA tag upstream of OXTR. […] OXTR was quantified by performing flow cytometry with a fluorescent antibody against HA. TCOT=TC-OT 39 ((2S)—N-[[4-[(4,10-dihydro-1-methylpyrazolo[3,4-b][1,5]benzodiazepin-5(1H)-yl)carbonyl]-2-methylphenyl]methyl]-2-[(hexahydro-4-methyl-1H-1,4-diazepin-1-yl)thioxomethyl]-1-pyrrolidinecarboxamide), partial OXTR agonist. CON=conivaptan (N-[4-(2-methyl-4,5-dihydro-3H-imidazo[4,5-d][1]benzazepine-6-carbonyl)phenyl]-2-phenylbenzamide; also known as YM087), vasopressin inhibitor. TASP=TASP 0390325 (2-(3-Chloro-4-fluorophenyl)-N-(1-methylethyl)-6-[3-(4-morpholinyl)propoxy]-4-oxo-pyrido[2,3-d]pyrimidine-3(4H)-acetamide hydrochloride), vasopressin inhibitor. WAY=WAY 267464 (4-(3,5-Dihydroxybenzyl)-N-(2-methyl-4-[(1-methyl-4,10-dihydropyrazolo[3,4-b][1,5]benzodiazepin-5(1H)-yl)carbonyl]benzyl)piperazine-1-carboxamide), OXTR agonist. TOL=tolvaptan (N-(4-{[(5R)-7-Chloro-5-hydroxy-2,3,4,5-tetrahydro-1H-1-benzazepin-1-yl]carbonyl}-3-methylphenyl)-2-methylbenzamide; also known as OPC41061), vasopressin inhibitor. OPC=OPC 21268 (N-[3-[4-[[4-(3,4-dihydro-2-oxo-1(2H)-quinolinyl)-1-piperidinyl]carbonyl]phenoxy]propyl]-acetamide), vasopressin inhibitor. SSR=SSR 149415 ((2S,4R)-1-[(3R)-5-Chloro-1-[(2,4-dimethoxyphenyl)sulfonyl]-2,3-dihydro-3-(2-methoxyphenyl)-2-oxo-1H-indol-3-yl]-4-hydroxy-N,N-dimethyl-2-pyrrolidinecarboxamide), vasopressin inhibitor. SR=SR49059 ((2S)-1-[[(2R,3S)-5-Chloro-3-(2-chlorophenyl)-1-[(3,4-dimethoxyphenyl)sulfonyl]-2,3-dihydro-3-hydroxy-1H-indol-2-yl]carbonyl]-2-pyrrolidinecarboxamide), vasopressin inhibitor. L371=L371,257 (1-[1-[4-(1-acetylpiperidin-4-yl)oxy-2-methoxybenzoyl]piperidin-4-yl]-4H-3,1-benzoxazin-2-one), OXTR antagonist.
Because specific antibodies to OXTR are not commercially available, CRISPR-Cas9 was used to introduce an HA tag at the N-terminus of OXTR in the hTERT-HM cell line. […]
To determine the mechanism of action of SR49059 and L371,257, hTERT-HM cells were treated for 12 h with cycloheximide (25 μg/mL), which inhibits protein translation, and brefeldin A (5 μg/mL), which blocks protein transport from the endoplasmic reticulum to the Golgi.
The Genome Engineering and iPSC Center at Washington University in St Louis used CRISPR-Cas9 to introduce an HA tag at the N-terminus of the OXTR gene in hTERT-HM cells. After drug incubation, cells were detached with TrypLE Express (Thermo Fisher) before flow cytometry.

[2] = target: T3, WT OXTR in hTERT-HM cells (Homo sapiens, UniProt P30559); assay: Oxytocin-induced IP1 production in hTERT-HM cells; assay type: cell-based; conditions: for increase of maximal IP1 production: hTERT-HM, N=5 (FIG. 8D)
T3 construct: hTERT-immortalized human myometrial (hTERT-HM) cells, which endogenously express WT OXTR; endogenous in cells; host or cells: hTERT-HM
T3 sequence (P30559 1-389): T1 sequence (P30559 1-389)

OXTR = target: T4, OXTR (Homo sapiens, UniProt P30559); conditions: in words, cited from earlier work
T4 sequence (P30559 1-389): T1 sequence (P30559 1-389)

[3] = hTERT-HM, HA-OXTR, 10 μM, 16 h (overnight)

COc1cc(OC2CCN(C(C)=O)CC2)ccc1C(=O)N1CCC(N2C(=O)OCc3ccccc32)CC1 [L371,257, 1-[1-[4-(1-acetylpiperidin-4-yl)oxy-2-methoxybenzoyl]piperidin-4-yl]-4H-3,1-benzoxazin-2-one]
more surface WT OXTR than vehicle-treated cells (WT OXTR): 170% | effect on cell surface OXTR in cells also treated with brefeldin A [1]: no effect | effect on cell surface OXTR in hTERT-HM cells [1]: greatest effect of all the candidate compounds | increase of cell surface OXTR abundance [1]: 2.9 fold | increase of surface OXTR in cells treated with cycloheximide [1]: 20% | increase of surface OXTR localization after 4 h of treatment [1]: more than twofold | surface OXTR localization at 48 h of treatment [1]: remained high | treatment time at which surface OXTR reached a plateau [1]: 6 h | increase of maximal IP1 production [2]: 35%

C[C@@H]1C[C@@H]([C@H](O)CC2CC(=O)NC(=O)C2)C(=O)[C@@H](C)C1 [Cycloheximide]
decrease of baseline cell surface OXTR abundance ([1]; hTERT-HM, 12 h): 18%

Cc1nc2c([nH]1)CCN(C(=O)c1ccc(NC(=O)c3ccccc3-c3ccccc3)cc1)c1ccccc1-2 [YM087, N-[4-(2-methyl-4,5-dihydro-3H-imidazo[4,5-d][1]benzazepine-6-carbonyl)phenyl]-2-phenylbenzamide]
effect on cell surface OXTR in hTERT-HM cells [1, 3]: significantly decreased | reported OXTR affinity (OXTR): medium OXTR affinity

Cc1cc(C(=O)N2Cc3cnn(C)c3Nc3ccccc32)ccc1CNC(=O)N1CCN(Cc2cc(O)cc(O)c2)CC1 [WAY26746, 4-(3,5-Dihydroxybenzyl)-N-(2-methyl-4-[(1-methyl-4,10-dihydropyrazolo[3,4-b][1,5]benzodiazepin-5(1H)-yl)carbonyl]benzyl)piperazine-1-carboxamide]
effect on cell surface OXTR in hTERT-HM cells [1, 3]: no effect

COc1ccc(S(=O)(=O)N2c3ccc(Cl)cc3[C@](O)(c3ccccc3Cl)[C@@H]2C(=O)N2CCC[C@H]2C(N)=O)cc1OC [SR49059, (2S)-1-[[(2R,3S)-5-Chloro-3-(2-chlorophenyl)-1-[(3,4-dimethoxyphenyl)sulfonyl]-2,3-dihydro-3-hydroxy-1H-indol-2-yl]carbonyl]-2-pyrrolidinecarboxamide]
effect on cell surface WT OXTR (WT OXTR; HEK293T transfected with WT OXTR): robustly increased | more surface WT OXTR than vehicle-treated cells (WT OXTR): 170% | treatment time at which surface OXTR reached a plateau ([1]; hTERT-HM time course): 6 h | effect on cell surface OXTR in hTERT-HM cells [1, 3]: robustly increased | increase of cell surface OXTR abundance ([1]; hTERT-HM, 10 μM, 16 h): 2.3 fold | increase of surface OXTR localization after 4 h of treatment ([1]; hTERT-HM, 4 h): more than twofold | effect on cell surface OXTR in cells also treated with cycloheximide ([1]; hTERT-HM, 12 h, 10 μM with cycloheximide 25 μg/mL): no effect | effect on cell surface OXTR in cells also treated with brefeldin A ([1]; hTERT-HM, 12 h, with brefeldin A 5 μg/mL): no effect | surface OXTR localization at 48 h of treatment ([1]; hTERT-HM, 48 h): remained high | increase of maximal IP1 production [2]: 37% | increase of maximal oxytocin response (IP1 accumulation) ([2]; human myometrial (hTERT-HM) cells, 10 μM overnight, N=3 (FIG. 2)): 12% | reported OXTR affinity (OXTR): medium OXTR affinity

Cc1cc(C(=O)N2Cc3cnn(C)c3Nc3ccccc32)ccc1CNC(=O)N1CCC[C@H]1C(=S)N1CCCN(C)CC1 [TCOT39, (2S)-N-[[4-[(4,10-dihydro-1-methylpyrazolo[3,4-b][1,5]benzodiazepin-5(1H)-yl)carbonyl]-2-methylphenyl]methyl]-2-[(hexahydro-4-methyl-1H-1,4-diazepin-1-yl)thioxomethyl]-1-pyrrolidinecarboxamide]
effect on cell surface OXTR in hTERT-HM cells [1, 3]: decreased

C[C@H]1CCC/C=C/[C@@H]2C[C@H](O)C[C@H]2[C@H](O)/C=C/C(=O)O1 [brefeldin A]
decrease of baseline cell surface OXTR abundance ([1]; hTERT-HM, 12 h): 62%

COc1ccc(S(=O)(=O)N2C(=O)[C@@](c3ccccc3OC)(N3C[C@H](O)C[C@H]3C(=O)N(C)C)c3cc(Cl)ccc32)c(OC)c1 [SSR149415, (2S,4R)-1-[(3R)-5-Chloro-1-[(2,4-dimethoxyphenyl)sulfonyl]-2,3-dihydro-3-(2-methoxyphenyl)-2-oxo-1H-indol-3-yl]-4-hydroxy-N,N-dimethyl-2-pyrrolidinecarboxamide]
reported OXTR affinity (OXTR): medium OXTR affinity

CC(=O)NCCCOc1ccc(C(=O)N2CCC(N3C(=O)CCc4ccccc43)CC2)cc1 [OPC21268, N-[3-[4-[[4-(3,4-dihydro-2-oxo-1(2H)-quinolinyl)-1-piperidinyl]carbonyl]phenoxy]propyl]-acetamide]
reported OXTR affinity (OXTR): medium OXTR affinity

Cc1ccccc1C(=O)Nc1ccc(C(=O)N2CCC[C@@H](O)c3cc(Cl)ccc32)c(C)c1 [OPC41061, N-(4-{[(5R)-7-Chloro-5-hydroxy-2,3,4,5-tetrahydro-1H-1-benzazepin-1-yl]carbonyl}-3-methylphenyl)-2-methylbenzamide]
effect on cell surface OXTR in hTERT-HM cells [1, 3]: increased

CC(C)NC(=O)Cn1c(-c2ccc(F)c(Cl)c2)nc2ncc(OCCCN3CCOCC3)cc2c1=O.Cl [TASP0390325, 2-(3-Chloro-4-fluorophenyl)-N-(1-methylethyl)-6-[3-(4-morpholinyl)propoxy]-4-oxo-pyrido[2,3-d]pyrimidine-3(4H)-acetamide hydrochloride]
reported OXTR affinity (OXTR; hydrochloride): extremely low affinity; also recorded: antagonist; low
